Laboratory results from US9260467B2, “Sialic acid dimers” (priority 2011, dated 2016).

Biological target: T1, Siglec-2 (CD22) (Homo sapiens, UniProt P20273)
T1 sequence (P20273 20-847): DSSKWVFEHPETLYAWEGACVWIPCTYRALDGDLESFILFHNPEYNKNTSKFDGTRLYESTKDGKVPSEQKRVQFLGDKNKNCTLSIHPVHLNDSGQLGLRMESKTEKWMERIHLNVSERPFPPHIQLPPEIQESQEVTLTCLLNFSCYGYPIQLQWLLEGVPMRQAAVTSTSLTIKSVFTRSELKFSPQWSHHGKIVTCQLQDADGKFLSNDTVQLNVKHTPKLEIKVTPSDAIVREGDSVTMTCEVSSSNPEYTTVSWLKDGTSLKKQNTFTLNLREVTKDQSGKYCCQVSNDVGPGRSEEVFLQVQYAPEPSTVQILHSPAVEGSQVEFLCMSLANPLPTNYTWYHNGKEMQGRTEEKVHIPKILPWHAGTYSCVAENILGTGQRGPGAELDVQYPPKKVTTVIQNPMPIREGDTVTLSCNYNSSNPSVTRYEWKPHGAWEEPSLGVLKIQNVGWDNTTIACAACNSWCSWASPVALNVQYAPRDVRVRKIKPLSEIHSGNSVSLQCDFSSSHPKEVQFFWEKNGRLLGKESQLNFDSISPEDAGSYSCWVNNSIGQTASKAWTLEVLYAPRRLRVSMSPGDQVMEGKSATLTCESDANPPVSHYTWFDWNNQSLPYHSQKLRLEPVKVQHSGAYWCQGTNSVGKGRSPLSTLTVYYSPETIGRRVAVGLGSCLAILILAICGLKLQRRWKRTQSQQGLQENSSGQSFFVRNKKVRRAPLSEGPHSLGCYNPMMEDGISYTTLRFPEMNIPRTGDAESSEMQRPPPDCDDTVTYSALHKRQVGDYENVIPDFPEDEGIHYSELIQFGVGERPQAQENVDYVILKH
Assay: new affinity assay: displacement of biotinylated compound 155 from sialidase-treated Daudi cells, FACS with streptavidin-PE
Assay type: binding
Design: endogenous in cells; host or cells: Daudi (human B-cell lymphoma line)
Details: Table II; rIP values set relative to compound 38; Daudi cells, displacement of compound 155
Experimental: To determine the affinity of the compound of the formula (I), approximately 5×10^6 to 2×10^8 cells of the human B-cell lymphoma line “Daudi” were incubated with sialidase (A. ureafaciens) at 37° C. for 1 h (final concentration 0.1 unit/ml). […] Batches of 1-2×10^6 cells were transferred to sample vessels, and incubated on ice for 15 min with serial concentrations (10-fold dilutions, 1 mM to 1×10^−7 mM) of the substance under measurement (inhibitor). The reaction volume was 50 μl. Then 50 microliters of compound 155 (4-micromolar) were added, and incubation took place for 20 min Washing with FACS buffer (PBS, 0.1 BSA, 0.01% sodium azide) was followed by incubation with streptavidin-PE in the dark for 15 min, followed by washing and measurement of the bound amount of […] via the streptavidin-PE in the FACS. For the determination of 0% displacement of the compound 155, cells without inhibitor were measured. For the determination of 100% displacement, cells were measured without compound 155 and without inhibitor. For each assay, four substances and one reference were measured. The IC50 values determined in each assay were subsequently converted into values of rIP (relative Inhibitory Potency). […]

Compound	rIP
CC(=O)N[C@H]1[C@H]([C@H](O)[C@H](O)CNC(=O)c2ccc(-c3ccccc3)cc2)O[C@@](OCCCSCCC(=O)NCc2ccc(CNC(=O)CCSCCCO[C@]3(C(=O)[O-])C[C@H](O)[C@@H](NC(C)=O)[C@H]([C@H](O)[C@H](O)CNC(=O)c4ccc(-c5ccccc5)cc4)O3)cc2)(C(=O)[O-])C[C@@H]1O.[Na+].[Na+] [Compound 44]	177
CC(=O)N[C@H]1[C@H]([C@H](O)[C@H](O)CNC(=O)c2ccc(-c3ccccc3)cc2)O[C@@](OCCCSCCNC(=O)C#CC(=O)NCCSCCCO[C@]2(C(=O)[O-])C[C@H](O)[C@@H](NC(C)=O)[C@H]([C@H](O)[C@H](O)CNC(=O)c3ccc(-c4ccccc4)cc3)O2)(C(=O)[O-])C[C@@H]1O.[Na+].[Na+] [Compound 25]	4944
CC(=O)N[C@H]1[C@H]([C@H](O)[C@H](O)CNC(=O)c2ccc(-c3c4ccc(=O)cc-4oc4cc(O)ccc34)c(C(=O)[O-])c2)O[C@@](OCCCSCCNC(=O)c2ccc(-c3ccc(C(=O)NCCSCCCO[C@]4(C(=O)[O-])C[C@H](O)[C@@H](NC(C)=O)[C@H]([C@H](O)[C@H](O)CNC(=O)c5ccc(-c6c7ccc(=O)cc-7oc7cc(O)ccc67)c(C(=O)[O-])c5)O4)cc3)cc2)(C(=O)[O-])C[C@@H]1O.[Na+].[Na+].[Na+].[Na+] [Compound 131]	4
CC(=O)N[C@H]1[C@H]([C@H](O)[C@H](O)CNC(=O)c2ccc(-c3ccccc3)cc2)O[C@@](OCCCSCCNC(=O)Nc2ccc(NC(=O)NCCSCCCO[C@]3(C(=O)[O-])C[C@H](O)[C@@H](NC(C)=O)[C@H]([C@H](O)[C@H](O)CNC(=O)c4ccc(-c5ccccc5)cc4)O3)cc2)(C(=O)[O-])C[C@@H]1O.[Na+].[Na+] [Compound 49]	626
CC(=O)N[C@H]1[C@H]([C@H](O)[C@H](O)CNC(=O)c2ccc(C3CCCCC3)cc2)O[C@@](OCCCSCCNC(=O)c2ccc(C(=O)NCCSCCCO[C@]3(C(=O)[O-])C[C@H](O)[C@@H](NC(C)=O)[C@H]([C@H](O)[C@H](O)CNC(=O)c4ccc(C5CCCCC5)cc4)O3)cc2)(C(=O)[O-])C[C@@H]1O.[Na+].[Na+] [Compound 57]	22
CC(=O)N[C@H]1[C@H]([C@H](O)[C@H](O)CNC(=O)c2ccc(-c3ccccc3)cc2)O[C@@](OCCCSCCC(=O)NCCNC(=O)CCSCCCO[C@]2(C(=O)[O-])C[C@H](O)[C@@H](NC(C)=O)[C@H]([C@H](O)[C@H](O)CNC(=O)c3ccc(-c4ccccc4)cc3)O2)(C(=O)[O-])C[C@@H]1O.[Na+].[Na+] [Compound 46]	290
CC(=O)N[C@H]1[C@H]([C@H](O)[C@H](O)CNC(=O)c2ccc(-c3ccccc3)cc2)O[C@@](OCCCSCCNC(=O)c2ccc(C(=O)NCCSCCCO[C@]3(C(=O)[O-])C[C@H](O)[C@@H](NC(C)=O)[C@H]([C@H](O)[C@H](O)CNC(=O)c4ccc(-c5ccccc5)cc4)O3)nc2)(C(=O)[O-])C[C@@H]1O.[Na+].[Na+] [Compound 27]	2990
CC(=O)N[C@H]1[C@H]([C@H](O)[C@H](O)CNC(=O)c2ccc(-c3ccccc3)cc2)O[C@@](OCCCSCCNC(=O)c2ccc(NC(=O)CCSCCCO[C@]3(C(=O)[O-])C[C@H](O)[C@@H](NC(C)=O)[C@H]([C@H](O)[C@H](O)CNC(=O)c4ccc(-c5ccccc5)cc4)O3)cc2)(C(=O)[O-])C[C@@H]1O.[Na+].[Na+] [Compound 54]	7092
CC(=O)N[C@H]1[C@H]([C@H](O)[C@H](O)CNC(=O)c2ccc(C(F)(F)F)cc2)O[C@@](OCCCSCCNC(=O)c2ccc(C(=O)NCCSCCCO[C@]3(C(=O)[O-])C[C@H](O)[C@@H](NC(C)=O)[C@H]([C@H](O)[C@H](O)CNC(=O)c4ccc(C(F)(F)F)cc4)O3)cc2)(C(=O)[O-])C[C@@H]1O.[Na+].[Na+] [Compound 71]	32
CC(=O)N[C@H]1[C@H]([C@H](O)[C@H](O)CNC(=O)Cc2ccc3ccccc3c2)O[C@@](OCCCSCCNC(=O)c2ccc(-c3ccc(C(=O)NCCSCCCO[C@]4(C(=O)[O-])C[C@H](O)[C@@H](NC(C)=O)[C@H]([C@H](O)[C@H](O)CNC(=O)Cc5ccc6ccccc6c5)O4)cc3)cc2)(C(=O)[O-])C[C@@H]1O.[Na+].[Na+] [Compound 127]	74
CC(=O)N[C@H]1[C@H]([C@H](O)[C@H](O)CNC(=O)c2ccc(-c3ccccc3)cc2)O[C@@](NC(=O)CCCCCNC(=O)c2ccc(C(=O)NCCCCCC(=O)N[C@]3(C(=O)[O-])C[C@H](O)[C@@H](NC(C)=O)[C@H]([C@H](O)[C@H](O)CNC(=O)c4ccc(-c5ccccc5)cc4)O3)cc2)(C(=O)[O-])C[C@@H]1O.[Na+].[Na+] [Compound 116]	<1
CC(=O)N[C@H]1[C@H]([C@H](O)[C@H](O)CNC(=O)c2ccc(-c3ccccc3)cc2)O[C@@](OCC(=O)NCCCC(=O)Nc2ccc(NC(=O)CCCNC(=O)CO[C@]3(C(=O)[O-])C[C@H](O)[C@@H](NC(C)=O)[C@H]([C@H](O)[C@H](O)CNC(=O)c4ccc(-c5ccccc5)cc4)O3)cc2)(C(=O)[O-])C[C@@H]1O.[Na+].[Na+] [Compound 90]	1445
CC(=O)N[C@H]1[C@H]([C@H](O)[C@H](O)CNC(=O)c2ccc(-c3ccc(C(=O)[O-])cc3)cc2)O[C@@](OCCCSCCNC(=O)c2ccc(C(=O)NCCSCCCO[C@]3(C(=O)[O-])C[C@H](O)[C@@H](NC(C)=O)[C@H]([C@H](O)[C@H](O)CNC(=O)c4ccc(-c5ccc(C(=O)[O-])cc5)cc4)O3)cc2)(C(=O)[O-])C[C@@H]1O.[Na+].[Na+].[Na+].[Na+] [Compound 68]	5
CC(=O)N[C@H]1[C@H]([C@H](O)[C@H](O)CNC(=O)c2ccc(-c3ccccc3)cc2)O[C@@](OCCCSCCNC(=O)c2ccc(C(=O)NCCSCCCO[C@]3(C(=O)[O-])C[C@H](OC(=O)c4ccccc4)[C@@H](NC(C)=O)[C@H]([C@H](O)[C@H](O)CNC(=O)c4ccc(-c5ccccc5)cc4)O3)cc2)(C(=O)[O-])C[C@@H]1OC(=O)c1ccccc1.[Na+].[Na+] [Compound 113]	3522
CC(=O)N[C@H]1[C@H]([C@H](O)[C@H](O)CNC(=O)c2ccc(-c3ccccc3)cc2)O[C@@](OCCCSCCNC(=O)CC(=O)NCCSCCCO[C@]2(C(=O)[O-])C[C@H](O)[C@@H](NC(C)=O)[C@H]([C@H](O)[C@H](O)CNC(=O)c3ccc(-c4ccccc4)cc3)O2)(C(=O)[O-])C[C@@H]1O.[Na+].[Na+] [Compound 37]	177
CC(=O)N[C@H]1[C@H]([C@H](O)[C@H](O)CNC(=O)c2ccc(-c3ccccc3)cc2)O[C@@](OCCCSCCNC(=O)C2CCC(C(=O)NCCSCCCO[C@]3(C(=O)[O-])C[C@H](O)[C@@H](NC(C)=O)[C@H]([C@H](O)[C@H](O)CNC(=O)c4ccc(-c5ccccc5)cc4)O3)CC2)(C(=O)[O-])C[C@@H]1O.[Na+].[Na+] (some centres unmarked) [Compound 31]	643
CC(=O)N[C@H]1[C@H]([C@H](O)[C@H](O)CNC(=O)c2ccc(-c3ccccc3)cc2)O[C@@](OCCC[S+]([O-])CCNC(=O)c2ccc(C(=O)NCC[S+]([O-])CCCO[C@]3(C(=O)[O-])C[C@H](O)[C@@H](NC(C)=O)[C@H]([C@H](O)[C@H](O)CNC(=O)c4ccc(-c5ccccc5)cc4)O3)cc2)(C(=O)[O-])C[C@@H]1O.[Na+].[Na+] (some centres unmarked) [Compound 132]	212
CC(=O)N[C@H]1[C@H]([C@H](O)[C@H](O)CNC(=O)c2cc3ccccc3s2)O[C@@](OCCCSCCNC(=O)c2ccc(C(=O)NCCSCCCO[C@]3(C(=O)[O-])C[C@H](O)[C@@H](NC(C)=O)[C@H]([C@H](O)[C@H](O)CNC(=O)c4cc5ccccc5s4)O3)cc2)(C(=O)[O-])C[C@@H]1O.[Na+].[Na+] [Compound 70]	137
CC(=O)N[C@H]1[C@H]([C@H](O)[C@H](O)CNC(=O)c2ccc(-c3ccccc3)cc2)O[C@@](OCCCSCCC(=O)Nc2c(C)c(C)c(NC(=O)CCSCCCO[C@]3(C(=O)[O-])C[C@H](O)[C@@H](NC(C)=O)[C@H]([C@H](O)[C@H](O)CNC(=O)c4ccc(-c5ccccc5)cc4)O3)c(C)c2C)(C(=O)[O-])C[C@@H]1O.[Na+].[Na+] [Compound 45]	523
CC(=O)N[C@H]1[C@H]([C@H](O)[C@H](O)CNC(=O)c2ccc(-c3ccccc3)cc2)O[C@@](OCCCSCCNc2c(NCCSCCCO[C@]3(C(=O)[O-])C[C@H](O)[C@@H](NC(C)=O)[C@H]([C@H](O)[C@H](O)CNC(=O)c4ccc(-c5ccccc5)cc4)O3)c(=O)c2=O)(C(=O)[O-])C[C@@H]1O.[Na+].[Na+] [Compound 51]	299
